Measured values as given in ChEMBL document CHEMBL1158456, “Synergistic effect of zanamivir-porphyrin conjugates on inhibition of neuraminidase and inactivation of influenza virus” (J Med Chem, 2009).
Active and inactive are the calls of the source. The rule behind the calls is not given here.

How the values were obtained:
Neuraminidase [1] = target: T1, Neuraminidase (Influenza A virus, UniProt B4URF0); assay: Inhibition of influenza A virus A/Vietnam/1194/2004 H5N1 neuraminidase using NA-STAR substrate after 15 mins incubation at room temperature by fluorescent assay
T1 sequence (B4URF0 whole entry): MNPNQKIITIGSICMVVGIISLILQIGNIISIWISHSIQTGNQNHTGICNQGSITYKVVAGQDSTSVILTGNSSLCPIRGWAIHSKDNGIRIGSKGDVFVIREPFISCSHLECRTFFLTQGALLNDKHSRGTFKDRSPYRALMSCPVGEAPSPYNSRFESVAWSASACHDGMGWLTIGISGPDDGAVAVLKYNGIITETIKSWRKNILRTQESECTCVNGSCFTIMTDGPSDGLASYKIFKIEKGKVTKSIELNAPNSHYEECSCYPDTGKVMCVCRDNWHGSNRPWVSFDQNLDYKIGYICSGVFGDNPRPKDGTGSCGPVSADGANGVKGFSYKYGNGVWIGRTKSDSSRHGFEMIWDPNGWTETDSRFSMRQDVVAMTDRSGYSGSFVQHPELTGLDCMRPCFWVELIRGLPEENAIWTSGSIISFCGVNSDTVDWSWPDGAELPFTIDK

Neuraminidase [2] = target: T1, Neuraminidase; assay: Inhibition of influenza A virus A/WSN/1933 H1N1 neuraminidase using NA-STAR substrate after 15 mins incubation at room temperature by fluorescent assay
Influenza A virus [3] = assay: Inhibition of influenza A virus A/WSN/1933 H1N1-induced hemagglutinination of chicken RBC; type: functional, organism-based
Influenza A virus [4] = assay: Antiviral activity against influenza A virus A/WSN/1933 H1N1 infected in MDCK cells assessed as reduction of infectious viral titer incubated for 1 hr measured after 3 days; type: functional, organism-based
Influenza A virus [5] = assay: Antiviral activity against influenza A virus A/WSN/1933 H1N1 infected in MDCK cells assessed as reduction of infectious viral titer at 0.4 to 10 uM incubated for 1 hr measured after 3 days relative to control; type: functional; parameters: scale not given: the % may be the effect or the level left
Influenza A virus [6] = assay: Antiviral activity against influenza A virus A/WSN/1933 H1N1 infected in MDCK cells assessed as protection against virus-induced cytopathic effect after 48 hrs; type: functional, organism-based
Influenza A virus [7] = assay: Antiviral activity against influenza A virus A/WSN/1933 H1N1 infected in MDCK cells assessed as reduction of infectious viral titer at 40 nM incubated for 1 hr measured after 3 days relative to control; type: functional; parameters: scale not given: the % may be the effect or the level left
Influenza A virus [8] = assay: Antiviral activity against influenza A virus A/WSN/1933 H1N1 infected in MDCK cells assessed as reduction of infectious viral titer at 200 nM incubated for 1 hr measured after 3 days; type: functional; parameters: scale not given: the % may be the effect or the level left
Influenza A virus [9] = assay: Antiviral activity against influenza A virus A/WSN/1933 H1N1 infected in MDCK cells assessed as reduction of infectious viral titer at 500 nM incubated for 1 hr under laminar flow hood light before infection measured after 3 days; type: functional, organism-based
[10] = system: Influenza A virus (A/Vietnam/1194/2004(H5N1)); assay: Binding affinity to influenza A virus A/Vietnam/1194/2004 H5N1 hemagglutininin to alpha-2,3-sialic acid galactosyl oligomers
Influenza A virus [11] = assay: Antiviral activity against influenza A virus A/Vietnam/1194/2004 H5N1 infected in MDCK cells assessed as protection against virus-induced cytopathic effect after 48 hrs; type: functional, organism-based
Influenza A virus [12] = assay: Antiviral activity against influenza A virus A/WSN/1933 H1N1 infected in MDCK cells after 3 days by plaque reduction assay; type: functional, organism-based; conditions: 72 h
Influenza A virus [13] = assay: Antiviral activity against influenza A virus A/WSN/1933 H1N1 infected in MDCK cells assessed as reduction of infectious viral titer at 100 nM incubated for 1 hr under laminar flow hood light before infection measured after 3 days; type: functional, organism-based
Influenza A virus [14] = assay: Antiviral activity against influenza A virus A/WSN/1933 H1N1 infected in MDCK cells assessed as reduction of infectious viral titer at 500 nM incubated for 1 hr under laminar flow hood light before infection measured after 3 days in presence of 10 fold excess zanamivir; type: functional, organism-based
Influenza A virus [15] = assay: Antiviral activity against influenza A virus A/WSN/1933 H1N1 infected in MDCK cells assessed as reduction of infectious viral titer at 100 nM incubated for 1 hr under laminar flow hood light before infection measured after 3 days in presence of 10 fold excess zanamivir; type: functional, organism-based
Influenza A virus [16] = assay: Antiviral activity against influenza A virus A/Vietnam/1194/2004 H5N1 infected in MDCK cells after 3 days by plaque reduction assay; type: functional, organism-based; conditions: 72 h
[17] = target: Neuraminidase (Influenza A virus) (UniProt B4URF0); assay: Inhibition of influenza A virus A/WSN/1933 H1N1 neuraminidase at 40 nM using NA-STAR substrate after 15 mins incubation at room temperature by fluorescent assay relative to control
Neuraminidase (Influenza A virus), sequence (B4URF0 as listed by the source): as the sequence (B4URF0 whole entry) above

[18] = target: Neuraminidase (Influenza A virus) (UniProt B4URF0); assay: Inhibition of influenza A virus A/Vietnam/1194/2004 H5N1 neuraminidase at 40 nM using NA-STAR substrate after 15 mins incubation at room temperature by fluorescent assay relative to control
[19] = target: Neuraminidase (Influenza A virus) (UniProt B4URF0); assay: Inhibition of influenza A virus A/WSN/1933 H1N1 neuraminidase at 10 nM using NA-STAR substrate after 15 mins incubation at room temperature by fluorescent assay relative to control
Influenza A virus [20] = assay: Ratio of EC50 for drug to EC50 for zanamivir against influenza A virus A/Vietnam/1194/2004 H5N1 by plaque reduction assay; type: functional
[21] = target: Neuraminidase (Influenza A virus) (UniProt B4URF0); assay: Inhibition of influenza A virus A/Vietnam/1194/2004 H5N1 neuraminidase at 10 nM using NA-STAR substrate after 15 mins incubation at room temperature by fluorescent assay relative to control

Compound | IC50 (Neuraminidase [2]) [nM] | Activity (Influenza A virus [3]) | Activity (Influenza A virus [6]) | Activity (Influenza A virus [9]) | Activity [10] | Activity (Influenza A virus [11]) | EC50 (Influenza A virus [12]) [nM] | Activity (Influenza A virus [13]) | also measured
CC(=O)N[C@H]1[C@H]([C@H](OC(=O)NCc2cn(CCOCCOCCOCCOCCNC(=O)COc3ccc(-c4c5nc(c(-c6ccc(OCC(=O)NCCOCCOCCOCCOCCn7cc(CNC(=O)O[C@@H]([C@@H]8OC(C(=O)O)=C[C@H](N=C(N)N)[C@H]8NC(C)=O)[C@H](O)CO)nn7)cc6)c6ccc([nH]6)c(-c6ccc(OCC(=O)NCCOCCOCCOCCOCCn7cc(CNC(=O)O[C@@H]([C@@H]8OC(C(=O)O)=C[C@H](N=C(N)N)[C@H]8NC(C)=O)[C@@H](O)CO)nn7)cc6)c6nc(c(-c7ccc(OCC(=O)NCCOCCOCCOCCOCCn8cc(CNC(=O)O[C@@H]([C@@H]9OC(C(=O)O)=C[C@H](N=C(N)N)[C@H]9NC(C)=O)[C@H](O)CO)nn8)cc7)c7ccc4[nH]7)C=C6)C=C5)cc3)nn2)[C@H](O)CO)OC(C(=O)O)=C[C@@H]1N=C(N)N | 3.7 | – | – | – | – | – | – | – | IC50 (Neuraminidase [1]): 7.6 nM
CC(=O)N[C@H]1[C@H]([C@H](OC(=O)NCc2cn(CCOCCOCCOCCNC(=O)COc3ccc(-c4c5nc(c(-c6ccc(OCC(=O)NCCOCCOCCOCCn7cc(CNC(=O)O[C@@H]([C@@H]8OC(C(=O)O)=C[C@H](N=C(N)N)[C@H]8NC(C)=O)[C@H](O)CO)nn7)cc6)c6ccc([nH]6)c(-c6ccc(OCC(=O)NCCOCCOCCOCCn7cc(CNC(=O)O[C@@H]([C@@H]8OC(C(=O)O)=C[C@H](N=C(N)N)[C@H]8NC(C)=O)[C@H](O)CO)nn7)cc6)c6nc(c(-c7ccc(OCC(=O)NCCOCCOCCOCCn8cc(CNC(=O)O[C@@H]([C@@H]9OC(C(=O)O)=C[C@H](N=C(N)N)[C@H]9NC(C)=O)[C@H](O)CO)nn8)cc7)c7ccc4[nH]7)C=C6)C=C5)cc3)nn2)[C@H](O)CO)OC(C(=O)O)=C[C@@H]1N=C(N)N | 8.5 | – | – | – | – | – | – | – | IC50 (Neuraminidase [1]): 16 nM
CC(=O)N[C@H]1[C@H]([C@H](OC(=O)NCc2cn(CCOCCOCCOCCOCCNC(=O)COc3ccc(-c4c5nc(c(-c6ccc(OCC(=O)NCCOCCOCCOCCOCCn7cc(CNC(=O)O[C@@H]([C@@H]8OC(C(=O)O)=C[C@H](NC(=N)N)[C@H]8NC(C)=O)[C@H](O)CO)nn7)cc6)c6ccc([nH]6)c(-c6ccc(OCC(=O)NCCOCCOCCOCCOCCn7cc(CNC(=O)O[C@@H]([C@@H]8OC(C(=O)O)=C[C@H](NC(=N)N)[C@H]8NC(C)=O)[C@@H](O)CO)nn7)cc6)c6nc(c(-c7ccc(OCC(=O)NCCOCCOCCOCCOCCn8cc(CNC(=O)O[C@@H]([C@@H]9OC(C(=O)O)=C[C@H](NC(=N)N)[C@H]9NC(C)=O)[C@H](O)CO)nn8)cc7)c7ccc4[nH]7)C=C6)C=C5)cc3)nn2)[C@H](O)CO)OC(C(=O)O)=C[C@@H]1NC(=N)N | – | inactive | Active | Active | inactive | Active | 0.1 | Active | Activity (Influenza A virus [4]): Dose-dependent effect; Activity (Influenza A virus [5]): 60%; Activity (Influenza A virus [7]): <20%; Activity (Influenza A virus [8]): >95%; Activity (Influenza A virus [14]): inactive; Activity (Influenza A virus [15]): inactive
CC(=O)N[C@H]1[C@H]([C@H](OC(=O)NCc2cn(CCOCOc3ccc(-c4c5nc(c(-c6ccc(OCOCCn7cc(CNC(=O)O[C@@H]([C@@H]8OC(C(=O)O)=C[C@H](NC(=N)N)[C@H]8NC(C)=O)[C@H](O)CO)nn7)cc6)c6ccc([nH]6)c(-c6ccc(OCOCCn7cc(CNC(=O)O[C@@H]([C@@H]8OC(C(=O)O)=C[C@H](NC(=N)N)[C@H]8NC(C)=O)[C@H](O)CO)nn7)cc6)c6nc(c(-c7ccc(OCOCCn8cc(CNC(=O)O[C@@H]([C@@H]9OC(C(=O)O)=C[C@H](NC(=N)N)[C@H]9NC(C)=O)[C@H](O)CO)nn8)cc7)c7ccc4[nH]7)C=C6)C=C5)cc3)nn2)[C@H](O)CO)OC(C(=O)O)=C[C@@H]1NC(=N)N | – | inactive | Active | – | inactive | Active | 2 | – | EC50 (Influenza A virus [16]): 11 nM; inhibition [17]: 51%; inhibition [18]: 51%; inhibition [19]: 24%; Ratio EC50 (Influenza A virus [20]): 55; inhibition [21]: 24%
Oc1ccc(-c2c3nc(c(-c4ccc(O)cc4)c4ccc([nH]4)c(-c4ccc(O)cc4)c4nc(c(-c5ccc(O)cc5)c5ccc2[nH]5)C=C4)C=C3)cc1 | – | – | – | inactive | – | – | – | inactive | –
CC(=O)N[C@H]1[C@H]([C@H](OC(=O)NCc2cn(CCOCCOCCOCCNC(=O)COc3ccc(-c4c5nc(c(-c6ccc(OCC(=O)NCCOCCOCCOCCn7cc(CNC(=O)O[C@@H]([C@@H]8OC(C(=O)O)=C[C@H](NC(=N)N)[C@H]8NC(C)=O)[C@H](O)CO)nn7)cc6)c6ccc([nH]6)c(-c6ccc(OCC(=O)NCCOCCOCCOCCn7cc(CNC(=O)O[C@@H]([C@@H]8OC(C(=O)O)=C[C@H](NC(=N)N)[C@H]8NC(C)=O)[C@H](O)CO)nn7)cc6)c6nc(c(-c7ccc(OCC(=O)NCCOCCOCCOCCn8cc(CNC(=O)O[C@@H]([C@@H]9OC(C(=O)O)=C[C@H](NC(=N)N)[C@H]9NC(C)=O)[C@H](O)CO)nn8)cc7)c7ccc4[nH]7)C=C6)C=C5)cc3)nn2)[C@H](O)CO)OC(C(=O)O)=C[C@@H]1NC(=N)N | – | inactive | Active | – | inactive | Active | 0.5 | – | –
CC(=O)N[C@H]1[C@H]([C@H](OC(=O)NCc2cn(CCOCOc3ccc(-c4c5nc(c(-c6ccc(OCOCCn7cc(CNC(=O)O[C@@H]([C@@H]8OC(C(=O)O)=C[C@H](N=C(N)N)[C@H]8NC(C)=O)[C@H](O)CO)nn7)cc6)c6ccc([nH]6)c(-c6ccc(OCOCCn7cc(CNC(=O)O[C@@H]([C@@H]8OC(C(=O)O)=C[C@H](N=C(N)N)[C@H]8NC(C)=O)[C@H](O)CO)nn7)cc6)c6nc(c(-c7ccc(OCOCCn8cc(CNC(=O)O[C@@H]([C@@H]9OC(C(=O)O)=C[C@H](N=C(N)N)[C@H]9NC(C)=O)[C@H](O)CO)nn8)cc7)c7ccc4[nH]7)C=C6)C=C5)cc3)nn2)[C@H](O)CO)OC(C(=O)O)=C[C@@H]1N=C(N)N | 11 | – | – | – | – | – | – | – | –
CC(=O)N[C@H]1[C@H]([C@H](O)[C@H](O)CO)OC(C(=O)O)=C[C@@H]1NC(=N)N [ZANAMIVIR] | – | – | – | inactive | – | – | 11 | inactive | EC50 (Influenza A virus [16]): 613 nM
